# Laboratory results taken from ChEMBL document CHEMBL1649156, “Antianaerobic activity of sulopenem compared to six other agents” (2009).
# Assays:
# Assay type in all cases: functional
# Prevotella salivae = assay: Antimicrobial activity in Prevotella salivae by CLSI agar dilution method; settings: Segatella salivae
# Fusobacterium nucleatum = assay: Antimicrobial activity in Fusobacterium nucleatum by CLSI agar dilution method
# Finegoldia magna = assay: Antimicrobial activity in Finegoldia magna by CLSI agar dilution method
# [1] = test system: Parabacteroides distasonis; assay: Antimicrobial activity in Bacteroides distasonis by CLSI agar dilution method
# [2] = test system: Bacteroides thetaiotaomicron; assay: Antimicrobial activity in Bacteroides thetaiotaomicron by CLSI agar dilution method
# [3] = test system: Peptoniphilus asaccharolyticus; assay: Antimicrobial activity in Peptoniphilus asaccharolyticus by CLSI agar dilution method
# Hoylesella oralis = assay: Antimicrobial activity in Prevotella oralis group by CLSI agar dilution method
# Prevotella veroralis = assay: Antimicrobial activity in Prevotella veroralis by CLSI agar dilution method
# [4] = test system: Fusobacterium necrophorum; assay: Antimicrobial activity in Fusobacterium necrophorum by CLSI agar dilution method
# Bacteroides stercoris = assay: Antimicrobial activity in Bacteroides stercoris by CLSI agar dilution method
# Prevotella corporis = assay: Antimicrobial activity in Prevotella corporis by CLSI agar dilution method
# Bacteroides ovatus = assay: Antimicrobial activity in Bacteroides ovatus by CLSI agar dilution method
# Parvimonas micra = assay: Antimicrobial activity in Micromonas micros by CLSI agar dilution method
# Clostridioides difficile = assay: Antimicrobial activity in Clostridium difficile by CLSI agar dilution method
# Prevotella nigrescens = assay: Antimicrobial activity in Prevotella nigrescens by CLSI agar dilution method
# Phocaeicola vulgatus = assay: Antimicrobial activity in Bacteroides vulgatus by CLSI agar dilution method
# [5] = test system: Paeniclostridium sordellii; assay: Antimicrobial activity in Clostridium sordellii by CLSI agar dilution method; settings: Paraclostridium sordellii
# Anaerococcus tetradius = assay: Antimicrobial activity in Anaerococcus tetradius by CLSI agar dilution method
# Prevotella disiens = assay: Antimicrobial activity in Prevotella disiens by CLSI agar dilution method
# Prevotella denticola = assay: Antimicrobial activity in Prevotella denticola by CLSI agar dilution method
# Actinomyces = assay: Antimicrobial activity in Actinomyces by CLSI agar dilution method
# [6] = test system: Paraclostridium bifermentans; assay: Antimicrobial activity in Clostridium bifermentans by CLSI agar dilution method
# Hoylesella loescheii = assay: Antimicrobial activity in Prevotella loescheii by CLSI agar dilution method
# Bacteroides fragilis = assay: Antimicrobial activity in Bacteroides fragilis by CLSI agar dilution method
# Prevotella sp. = assay: Antimicrobial activity in Prevotella sp.by CLSI agar dilution method
# Fusobacterium mortiferum = assay: Antimicrobial activity in Fusobacterium mortiferum by CLSI agar dilution method
# [Clostridium] innocuum = Antimicrobial activity in Clostridium innocuum by CLSI agar dilution method
# Lactobacillus = assay: Antimicrobial activity in Lactobacillus by CLSI agar dilution method
# Clostridium butyricum = assay: Antimicrobial activity in Clostridium butyricum by CLSI agar dilution method
# Eggerthella lenta = assay: Antimicrobial activity in Eggerthella lenta by CLSI agar dilution method
# Prevotella intermedia = assay: Antimicrobial activity in Prevotella intermedia by CLSI agar dilution method
# Prevotella buccae = assay: Antimicrobial activity in Prevotella buccae by CLSI agar dilution method; settings: Segatella buccae
# Clostridium cadaveris = assay: Antimicrobial activity in Clostridium cadaveris by CLSI agar dilution method
# Fusobacterium varium = assay: Antimicrobial activity in Fusobacterium varium by CLSI agar dilution method
# Bacteroides uniformis = assay: Antimicrobial activity in Bacteroides uniformis by CLSI agar dilution method
# Tissierella praeacuta = assay: Antimicrobial activity in Clostridium hastiforme by CLSI agar dilution method
# Thomasclavelia ramosa = assay: Antimicrobial activity in Clostridium ramosum by CLSI agar dilution method
# [7] = test system: Prevotella melaninogenica; assay: Antimicrobial activity in Prevotella melaninogenica by CLSI agar dilution method
# Porphyromonas gingivalis = assay: Antimicrobial activity in Porphyromonas gingivalis by CLSI agar dilution method
# [8] = test system: Enterocloster clostridioformis; assay: Antimicrobial activity in Clostridium clostridioforme by CLSI agar dilution method
# Clostridium perfringens = assay: Antimicrobial activity in Clostridium perfringens by CLSI agar dilution method
# Clostridium tertium = assay: Antimicrobial activity in Clostridium tertium by CLSI agar dilution method
# [9] = test system: Porphyromonas asaccharolytica; assay: Antimicrobial activity in Porphyromonas asaccharolytica by CLSI agar dilution method
# [10] = test system: Peptostreptococcus anaerobius; assay: Antimicrobial activity in Peptostreptococcus anaerobius by CLSI agar dilution method
# Clostridium sp. = assay: Antimicrobial activity in Clostridium sp. by CLSI agar dilution method
# Bifidobacterium = assay: Antimicrobial activity in Bifidobacterium by CLSI agar dilution method
# Prevotella bergensis = assay: Antimicrobial activity in Prevotella bergensis by CLSI agar dilution method; settings: Hallella bergensis
# Anaerococcus prevotii = assay: Antimicrobial activity in Anaerococcus prevotii by CLSI agar dilution method
# Prevotella baroniae = assay: Antimicrobial activity in Prevotella baroniae by CLSI agar dilution method; settings: Segatella baroniae
# Prevotella bivia = assay: Antimicrobial activity in Prevotella bivia by CLSI agar dilution method
# Cutibacterium acnes = assay: Antimicrobial activity in Propionibacterium acnes by CLSI agar dilution method
smiles,measurement,setting,value
C[C@@H](O)[C@H]1C(=O)N2C(C(=O)O)=C(SCCNC=N)C[C@H]12 [IMIPENEM ANHYDROUS],MIC,Prevotella salivae,0.03 µg/mL
same,MIC50,Fusobacterium nucleatum,0.03 µg/mL
same,MIC90,Fusobacterium nucleatum,0.06 µg/mL
same,MIC,Finegoldia magna,0.06 µg/mL
same,MIC50,Finegoldia magna,0.06 µg/mL
same,MIC90,Finegoldia magna,0.125 µg/mL
same,MIC50,[1],0.5 µg/mL
same,MIC90,[1],1 µg/mL
same,MIC,[2],0.25 µg/mL
same,MIC50,[2],0.25 µg/mL
same,MIC90,[2],0.25 µg/mL
same,MIC,[3],≤ 0.016 µg/mL
same,MIC50,[3],≤ 0.016 µg/mL
same,MIC,Hoylesella oralis,≤ 0.016 µg/mL
same,MIC,Prevotella veroralis,0.03 µg/mL
same,MIC,[4],≤ 0.016 µg/mL
same,MIC50,[4],≤ 0.016 µg/mL
same,MIC,Bacteroides stercoris,0.25 µg/mL
same,MIC50,Bacteroides stercoris,0.25 µg/mL
same,MIC,Prevotella corporis,≤ 0.016 µg/mL
same,MIC50,Prevotella corporis,≤ 0.016 µg/mL
same,MIC,Bacteroides ovatus,0.125 µg/mL
same,MIC50,Bacteroides ovatus,0.125 µg/mL
same,MIC90,Bacteroides ovatus,0.25 µg/mL
same,MIC,Parvimonas micra,0.03 µg/mL
same,MIC50,Parvimonas micra,0.03 µg/mL
same,MIC90,Parvimonas micra,0.06 µg/mL
same,MIC50,Clostridioides difficile,4 µg/mL
same,MIC90,Clostridioides difficile,4 µg/mL
same,MIC,Prevotella nigrescens,≤ 0.016 µg/mL
same,MIC50,Prevotella nigrescens,≤ 0.016 µg/mL
same,MIC90,Prevotella nigrescens,0.06 µg/mL
same,MIC50,Phocaeicola vulgatus,0.5 µg/mL
same,MIC90,Phocaeicola vulgatus,0.5 µg/mL
same,MIC,[5],0.06 µg/mL
same,MIC50,Anaerococcus tetradius,0.03 µg/mL
same,MIC90,Anaerococcus tetradius,0.06 µg/mL
same,MIC,Prevotella disiens,0.03 µg/mL
same,MIC50,Prevotella disiens,0.06 µg/mL
same,MIC50,Prevotella denticola,0.03 µg/mL
same,MIC90,Prevotella denticola,0.125 µg/mL
same,MIC,Actinomyces,0.06 µg/mL
same,MIC50,Actinomyces,0.125 µg/mL
same,MIC,[6],0.25 µg/mL
same,MIC,Hoylesella loescheii,0.03 µg/mL
same,MIC50,Bacteroides fragilis,0.125 µg/mL
same,MIC90,Bacteroides fragilis,0.25 µg/mL
same,MIC,Prevotella sp.,0.03 µg/mL
same,MIC50,Fusobacterium mortiferum,0.5 µg/mL
same,MIC90,Fusobacterium mortiferum,1 µg/mL
same,MIC,[Clostridium] innocuum,0.125 µg/mL
same,MIC50,Lactobacillus,1 µg/mL
same,MIC90,Lactobacillus,2 µg/mL
same,MIC,Clostridium butyricum,0.5 µg/mL
same,MIC50,Eggerthella lenta,0.5 µg/mL
same,MIC90,Eggerthella lenta,0.5 µg/mL
same,MIC,Prevotella intermedia,≤ 0.016 µg/mL
same,MIC50,Prevotella intermedia,≤ 0.016 µg/mL
same,MIC90,Prevotella intermedia,0.06 µg/mL
same,MIC,Prevotella buccae,0.03 µg/mL
same,MIC50,Prevotella buccae,0.03 µg/mL
same,MIC90,Prevotella buccae,0.125 µg/mL
same,MIC,Clostridium cadaveris,0.125 µg/mL
same,MIC,Fusobacterium varium,0.5 µg/mL
same,MIC50,Fusobacterium varium,0.5 µg/mL
same,MIC90,Fusobacterium varium,1 µg/mL
same,MIC,Bacteroides uniformis,0.25 µg/mL
same,MIC50,Bacteroides uniformis,0.25 µg/mL
same,MIC,Tissierella praeacuta,2 µg/mL
same,MIC,Thomasclavelia ramosa,0.25 µg/mL
same,MIC50,[7],0.03 µg/mL
same,MIC90,[7],0.125 µg/mL
same,MIC,Porphyromonas gingivalis,≤ 0.016 µg/mL
same,MIC,[8],1 µg/mL
same,MIC50,Clostridium perfringens,0.125 µg/mL
same,MIC90,Clostridium perfringens,0.125 µg/mL
same,MIC,Clostridium tertium,0.25 µg/mL
same,MIC50,Clostridium tertium,0.25 µg/mL
same,MIC,[9],≤ 0.016 µg/mL
same,MIC,[10],0.06 µg/mL
same,MIC50,[10],0.06 µg/mL
same,MIC90,[10],1 µg/mL
same,MIC50,Clostridium sp.,1 µg/mL
same,MIC90,Clostridium sp.,1 µg/mL
same,MIC,Bifidobacterium,0.03 µg/mL
same,MIC50,Bifidobacterium,0.03 µg/mL
same,MIC90,Bifidobacterium,0.125 µg/mL
same,MIC,Prevotella bergensis,0.06 µg/mL
same,MIC,Anaerococcus prevotii,≤ 0.016 µg/mL
same,MIC,Prevotella baroniae,0.03 µg/mL
same,MIC,Prevotella bivia,0.03 µg/mL
same,MIC50,Prevotella bivia,0.03 µg/mL
same,MIC90,Prevotella bivia,0.25 µg/mL
same,MIC50,Cutibacterium acnes,0.03 µg/mL
same,MIC90,Cutibacterium acnes,0.03 µg/mL
